Legend:
[1] = tested on: seizures in Dravet patients; conditions: cited from earlier work; for effectiveness of seizure treatment: individuals with Dravet syndrome
[2] = tested on: seizures in individuals with WHS and with Dravet syndrome; conditions: individuals with WHS as well as individuals with Dravet syndrome; cited from earlier work
[3] = tested on: seizures in patients with 15q Duplication syndrome; conditions: cited from earlier work
[4] = tested on: seizures in individuals with WHS; assay: Online survey of 4p-Support Group parents: seizure control outcome by seizure treatment in WHS (Example 5); type: in vivo, human; conditions: for Seizure control outcome: Complete control, Percent / Seizure control outcome: Increased number of seizure, Percent / Seizure control outcome: Less than 50% reduction, Percent / Seizure control outcome: No change, Percent / Seizure control outcome: ≥50% reduction, Percent: percent of users of the medication
From the text: This study and all recruitment materials were approved by the University of Utah IRB (IRB_00064655). The cohort for this study was recruited from the 4p-Support Group, which is comprised of parents and caretakers of individuals with WHS. Inclusion criteria were: 1) a genetic diagnosis of WHS and 2) at least one seizure treatment had been used for seizure control. An invitation to participate in the survey was sent out to all members of the 4p-Support Group email list (representing approximately 300 individuals with WHS) and posted on the 4p-Support Group's Facebook page. Individuals self-identifying as a parent or caretaker of an individual with WHS and a history of seizures, who had tried at least one seizure treatment, were invited to participate. The invitation described the purpose of the study and provided a link to the online survey.
The survey was developed by expanding the seizure history and treatment sections of a previous survey used by Ho et al (J Med Genet 2016; 53:256-263). The online survey was hosted by the HIPAA-compliant platform, RedCAP, and consisted of four sections. The first section collected general demographic information about the individual with WHS. Two additional questions were added to confirm whether the individual had genetic testing to confirm the diagnosis of WHS and ascertain which type of genetic testing had been completed. The second section focused on seizure history. This included age of onset, types of seizures, seizure duration, status epilepticus (seizures lasting longer than 30 minutes), and whether the individual still experiences seizures or is seizure free. The third section asked about antiepileptic drugs (AEDs) used for seizure treatment. Participants were asked to list each AED or combination of AEDs tried in chronological order. For each AED or combination of AEDs participants were asked about duration, effect on number of seizures, side effects, and reasons for discontinuing that AED or combination of AEDs. There were also questions about whether the individual was on a ketogenic diet or using cannabis oil during that time. Space for additional comments about each AED or combination of AEDs tried was also provided. The fourth section contained questions about use of ketogenic diet or cannabis oil while in the absence of AEDs. Again participants were asked about duration, effect on number of seizures, side effects, and reasons for discontinuing. In the case of cannabis oil use, participants were asked to specify whether pure cannabis oil or a THC mixture was used.
The levels of seizure control outcome were grouped into five categories: increased number of seizure, no change, less than 50% reduction, >50% reduction, and complete control.
When a medication was used multiple times (or when looking at combined medication), the seizure control outcome was scored as the best response among all of them. The most frequently used 5 medications reported in this cohort are phenobarbital, diazepam, lamotrigine, valproic acid (sodium valproate) and levetiracetam. We used frequency and percentages to describe the seizure control outcome of these five medications. The Kruskal-Wallis test was performed to evaluate the level of seizure control achieved with these five medications. The Wilcoxon rank sum test was performed to evaluate the hypothesis of the different seizure control outcomes between carbamazepine and levetiracetam. Comparison of the seizure control outcome based on whether levetiracetam was used first or later, was performed by the Cochran Armitage test. Statistical analysis was conducted using SAS 9.4 (SAS Inc., N.C.).

[5] = tested on: seizures in individuals with WHS; assay: Parent-reported responses to seizure medications, questionnaire of the 48-individual WHS cohort (Example 1); type: in vivo, human; conditions: n users per drug; for Negative reports: number of unprompted parent reports of a negative reaction causing stop of the drug or no control over seizures; for Positive reports: number of unprompted parent reports of significant and observable increase in control over seizures
From the text: This questionnaire captures the health, medical profile, developmental history, and treatment responses of individuals with WHS. For the present study, the focus was on the presence or absence of seizures, age of seizure onset, types of seizures, antiepileptic drugs (AEDs) used and responses to these AEDs, as well as responses to the ketogenic diet. For cases with incomplete, contradictory or unclear parental responses, medical records of patients were consulted. When available medical records were also incomplete, ‘no answer’ is indicated in the relevant text and tables.
AED responses were scored as negative if the patients' parents reported a negative reaction (allergic reaction or other) without prompting that caused them to stop using that drug, or if the drug conferred no control over seizures.

[6] = tested on: seizures of this subtype of CDG; conditions: subtype of CDG caused by genes functioning like PIGG; cited from earlier work
[7] = levetiracetam used as first AED (n = 31)
[8] = levetiracetam used later in treatment (n = 27)

| SMILES | response to seizure treatment [3] | Seizure control outcome: Complete control, Percent [4] [%] | Seizure control outcome: Less than 50% reduction, Percent [4] [%] | Seizure control outcome: No change, Percent [4] [%] | Seizure control outcome: ≥50% reduction, Percent [4] [%] | Negative reports [5] | Positive reports [5] | further results |
| --- | --- | --- | --- | --- | --- | --- | --- | --- |
| NC(=O)N1c2ccccc2C=Cc2ccccc21 [Carbamazepine] | generally responded well | 18.18 | 18.18 | 27.27 | 9.09 | – | – | aggravates seizures, share of Dravet patients ([1]; Dravet syndrome): 20%; no benefit, share of Dravet patients ([1]; Dravet syndrome): 78%; effect on seizures [2]: exacerbate seizures; Seizure control outcome: Increased number of seizure, Percent [4]: 27.27% |
| CN1C(=O)CN=C(c2ccccc2)c2cc(Cl)ccc21 [Diazepam] | – | 31.25 | 6.25 | 25 | 37.5 | – | – | – |
| Nc1nnc(-c2cccc(Cl)c2Cl)c(N)n1 [Lamotrigine] | – | 31.25 | 6.25 | 12.5 | 50 | – | – | effect on seizures [2]: exacerbate seizures |
| CC[C@@H](C(N)=O)N1CCCC1=O [Levetiracetam] | generally responded well | 56.9 | 8.62 | 5.17 | 29.31 | 1 | 4 | Complete control, First use, % [4, 7]: 61.29%; Less than 50% reduction, First use, % [4, 7]: 3.23%; No change, First use, % [4, 7]: 3.23%; ≥50% reduction, First use, % [4, 7]: 32.26%; Complete control, Later use, % [4, 8]: 51.85%; Less than 50% reduction, Later use, % [4, 8]: 14.81%; No change, Later use, % [4, 8]: 7.41%; ≥50% reduction, Later use, % [4, 8]: 25.93% |
| CCC1(c2ccccc2)C(=O)NC(=O)NC1=O [Phenobarbital] | – | 61.11 | 11.11 | 13.89 | 11.11 | 5 | 0 | Seizure control outcome: Increased number of seizure, Percent [4]: 2.78% |
| CC1(C)O[C@@H]2[C@@H](CO[C@@]3(COS(N)(=O)=O)OC(C)(C)O[C@@H]23)O1 [Topiramate] | – | – | – | – | – | 4 | 1 | – |
| CCCC(CCC)C(=O)O [Valproic acid] | generally responded well | 50 | 9.38 | 9.38 | 31.25 | 2 | 2 | effectiveness of seizure treatment [1]: most effective |
| Cc1ncc(CO)c(CO)c1O.Cl [Vitamin B6] | – | – | – | – | – | – | – | efficacy in treating seizures [6]: efficacious |
| Br [bromide] | – | – | – | – | – | – | – | effectiveness of seizure treatment [1]: most effective |

Reference: US20210212960A1, “IDENTIFICATION OF SEIZURE SUSCEPTIBILITY REGION IN WOLF-HIRSCHHORN SYNDROME AND TREATMENT THEREOF” (Lineagen, Inc., priority 2016, published 2021)
